PubChem BioAssay (NCI)
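Five concentrations, 48 hours, 96-well plates. TGI is the concentration that stops growth completely.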

Key:
Test in all cases: NCI anticancer screen, dose series, 48 h
786-0 renal = tested on: 786-0 renal
A498 renal = tested on: A498 renal
A549 NSCLC = tested on: A549 NSCLC
ACHN renal = tested on: ACHN renal
BT-549 breast = tested on: BT-549 breast
CAKI-1 renal = tested on: CAKI-1 renal
CCRF-CEM leukemia = tested on: CCRF-CEM leukemia
COLO 205 colon = tested on: COLO 205 colon
DU-145 prostate = tested on: DU-145 prostate
EKVX NSCLC = tested on: EKVX NSCLC
HCT-116 colon = tested on: HCT-116 colon
HCT-15 colon = tested on: HCT-15 colon
HL-60(TB) leukemia = tested on: HL-60(TB) leukemia
HOP-62 NSCLC = tested on: HOP-62 NSCLC
HOP-92 NSCLC = tested on: HOP-92 NSCLC
HS 578T breast = tested on: HS 578T breast
HT29 colon = tested on: HT29 colon
IGROV1 ovarian = tested on: IGROV1 ovarian
K-562 leukemia = tested on: K-562 leukemia
KM12 colon = tested on: KM12 colon
LOX IMVI melanoma = tested on: LOX IMVI melanoma
M14 melanoma = tested on: M14 melanoma
MALME-3M melanoma = tested on: MALME-3M melanoma
MCF7 breast = tested on: MCF7 breast
MDA-MB-231 breast = tested on: MDA-MB-231 breast
MDA-MB-435 = tested on: MDA-MB-435
MDA-N = tested on: MDA-N
MOLT-4 leukemia = tested on: MOLT-4 leukemia
NCI-H226 lung = tested on: NCI-H226 lung
NCI-H460 lung = tested on: NCI-H460 lung
NCI-H522 lung = tested on: NCI-H522 lung
NCI/ADR-RES ovarian = tested on: NCI/ADR-RES ovarian
OVCAR-3 ovarian = tested on: OVCAR-3 ovarian
OVCAR-4 ovarian = tested on: OVCAR-4 ovarian
OVCAR-5 ovarian = tested on: OVCAR-5 ovarian
OVCAR-8 ovarian = tested on: OVCAR-8 ovarian
PC-3 prostate = tested on: PC-3 prostate
RPMI-8226 leukemia = tested on: RPMI-8226 leukemia
RXF 393 renal = tested on: RXF 393 renal
SF-268 CNS = tested on: SF-268 CNS
SF-295 CNS = tested on: SF-295 CNS
SF-539 CNS = tested on: SF-539 CNS
SK-MEL-2 melanoma = tested on: SK-MEL-2 melanoma
SK-MEL-28 melanoma = tested on: SK-MEL-28 melanoma
SK-MEL-5 melanoma = tested on: SK-MEL-5 melanoma
SK-OV-3 ovarian = tested on: SK-OV-3 ovarian
SN12C renal = tested on: SN12C renal
SNB-19 CNS = tested on: SNB-19 CNS
SNB-75 CNS = tested on: SNB-75 CNS
SR leukemia = tested on: SR leukemia
SW-620 colon = tested on: SW-620 colon
T-47D breast = tested on: T-47D breast
TK-10 renal = tested on: TK-10 renal
U251 CNS = tested on: U251 CNS
UACC-257 melanoma = tested on: UACC-257 melanoma
UO-31 renal = tested on: UO-31 renal
HCC-2998 colon = tested on: HCC-2998 colon
NCI-H23 lung = tested on: NCI-H23 lung
UACC-62 melanoma = tested on: UACC-62 melanoma

O=C1NC(=O)C(c2c[nH]c3ccccc23)=C1c1cnc[nH]1
TGI (786-0 renal): > 100 µM | TGI (A498 renal): > 100 µM | TGI (A549 NSCLC): > 100 µM | TGI (ACHN renal): > 100 µM | TGI (BT-549 breast): > 100 µM | TGI (CAKI-1 renal): > 100 µM | TGI (CCRF-CEM leukemia): > 100 µM | TGI (COLO 205 colon): > 100 µM | TGI (DU-145 prostate): > 100 µM | TGI (EKVX NSCLC): > 100 µM | TGI (HCT-116 colon): > 100 µM | TGI (HCT-15 colon): > 100 µM | TGI (HL-60(TB) leukemia): > 100 µM | TGI (HOP-62 NSCLC): > 100 µM | TGI (HOP-92 NSCLC): > 100 µM | TGI (HS 578T breast): > 100 µM | TGI (HT29 colon): > 100 µM | TGI (IGROV1 ovarian): > 100 µM | TGI (K-562 leukemia): > 100 µM | TGI (KM12 colon): > 100 µM | TGI (LOX IMVI melanoma): > 100 µM | TGI (M14 melanoma): > 100 µM | TGI (MALME-3M melanoma): > 100 µM | TGI (MCF7 breast): > 100 µM | TGI (MDA-MB-231 breast): > 100 µM | TGI (MDA-MB-435): > 100 µM | TGI (MDA-N): > 100 µM | TGI (MOLT-4 leukemia): > 100 µM | TGI (NCI-H226 lung): 9.4 µM | TGI (NCI-H460 lung): > 100 µM | TGI (NCI-H522 lung): > 100 µM | TGI (NCI/ADR-RES ovarian): > 100 µM | TGI (OVCAR-3 ovarian): > 100 µM | TGI (OVCAR-4 ovarian): > 100 µM | TGI (OVCAR-5 ovarian): > 100 µM | TGI (OVCAR-8 ovarian): > 100 µM | TGI (PC-3 prostate): > 100 µM | TGI (RPMI-8226 leukemia): > 100 µM | TGI (RXF 393 renal): > 100 µM | TGI (SF-268 CNS): > 100 µM | TGI (SF-295 CNS): > 100 µM | TGI (SF-539 CNS): > 100 µM | TGI (SK-MEL-2 melanoma): > 100 µM | TGI (SK-MEL-28 melanoma): > 100 µM | TGI (SK-MEL-5 melanoma): 78.1 µM | TGI (SK-OV-3 ovarian): > 100 µM | TGI (SN12C renal): > 100 µM | TGI (SNB-19 CNS): > 100 µM | TGI (SNB-75 CNS): > 100 µM | TGI (SR leukemia): > 100 µM | TGI (SW-620 colon): > 100 µM | TGI (T-47D breast): > 100 µM | TGI (TK-10 renal): > 100 µM | TGI (U251 CNS): > 100 µM | TGI (UACC-257 melanoma): > 100 µM | TGI (UO-31 renal): > 100 µM

O=C(O)c1ccc(N=C(C(=Nc2ccc(C(=O)O)cc2)c2ccccc2)c2ccccc2)cc1
TGI (786-0 renal): > 100 µM | TGI (A498 renal): > 100 µM | TGI (A549 NSCLC): > 100 µM | TGI (ACHN renal): > 100 µM | TGI (BT-549 breast): > 100 µM | TGI (COLO 205 colon): > 100 µM | TGI (DU-145 prostate): > 100 µM | TGI (EKVX NSCLC): > 100 µM | TGI (HCC-2998 colon): > 100 µM | TGI (HCT-116 colon): > 100 µM | TGI (HCT-15 colon): > 100 µM | TGI (HOP-62 NSCLC): > 100 µM | TGI (HS 578T breast): > 100 µM | TGI (IGROV1 ovarian): > 100 µM | TGI (K-562 leukemia): > 100 µM | TGI (KM12 colon): > 100 µM | TGI (LOX IMVI melanoma): > 100 µM | TGI (M14 melanoma): > 100 µM | TGI (MCF7 breast): > 100 µM | TGI (MDA-MB-231 breast): > 100 µM | TGI (MDA-MB-435): > 100 µM | TGI (MDA-N): > 100 µM | TGI (MOLT-4 leukemia): > 100 µM | TGI (NCI-H226 lung): > 100 µM | TGI (NCI-H23 lung): > 100 µM | TGI (NCI-H460 lung): > 100 µM | TGI (NCI/ADR-RES ovarian): > 100 µM | TGI (OVCAR-3 ovarian): > 100 µM | TGI (OVCAR-4 ovarian): > 100 µM | TGI (OVCAR-5 ovarian): > 100 µM | TGI (OVCAR-8 ovarian): > 100 µM | TGI (PC-3 prostate): > 100 µM | TGI (RPMI-8226 leukemia): > 100 µM | TGI (RXF 393 renal): > 100 µM | TGI (SF-268 CNS): > 100 µM | TGI (SF-295 CNS): > 100 µM | TGI (SK-MEL-2 melanoma): > 100 µM | TGI (SK-MEL-28 melanoma): > 100 µM | TGI (SK-OV-3 ovarian): > 100 µM | TGI (SN12C renal): > 100 µM | TGI (SNB-19 CNS): > 100 µM | TGI (SNB-75 CNS): > 100 µM | TGI (SR leukemia): > 100 µM | TGI (SW-620 colon): > 100 µM | TGI (T-47D breast): > 100 µM | TGI (TK-10 renal): > 100 µM | TGI (U251 CNS): > 100 µM | TGI (UACC-257 melanoma): > 100 µM | TGI (UACC-62 melanoma): > 100 µM | TGI (UO-31 renal): > 100 µM
